ChEMBL document CHEMBL1275481, “Mechanism and fitness costs of PR-39 resistance in Salmonella enterica serovar Typhimurium LT2” (2008)
≈ marks a conversion by molar mass, not a printed value. Calls of active or inactive are those of the source. No cut-off for these calls is given here.

How the values were obtained:
Salmonella typhimurium [1] = assay: Antimicrobial activity against PR-39-resistant Salmonella enterica serovar Typhimurium LT2 DA10899 harboring Q179Stop mutant gene by Etest; type: functional
Salmonella typhimurium [2] = assay: Antimicrobial activity against PR-39-resistant sbmA-deficient Salmonella enterica serovar Typhimurium LT2 DA12088 by Etest; type: functional
Salmonella typhimurium [3] = assay: Antimicrobial activity against PR-39-resistant Salmonella enterica serovar Typhimurium LT2 DA6192 by Etest; type: functional
Salmonella typhimurium [4] = assay: Antimicrobial activity against sbmA-deficient Salmonella enterica serovar Typhimurium LT2 DA12088 assessed as log increase in survival rate at 4 uM after 24 hrs relative to wild type; type: functional
Salmonella typhimurium [5] = assay: Antimicrobial activity against Salmonella enterica serovar Typhimurium LT2 at 16 uM after 24 hrs; type: functional, organism-based; conditions: Salmonella enterica subsp. enterica serovar Typhimurium
Salmonella typhimurium [6] = assay: Antimicrobial activity against sbmA-deficient Salmonella enterica serovar Typhimurium LT2 DA12088 assessed as log increase in survival rate at 16 uM after 24 hrs relative to wild type; type: functional
Salmonella typhimurium [7] = assay: Antimicrobial activity against sbmA-deficient Salmonella enterica serovar Typhimurium LT2 DA13090 harboring sbmA gene by Etest in presence of arabinose; type: functional
Salmonella typhimurium [8] = assay: Antimicrobial activity against Salmonella enterica serovar Typhimurium LT2 DA10907 harboring sbmA E287K mutant gene by Etest; type: functional
Salmonella typhimurium [9] = assay: Antimicrobial activity against Salmonella enterica serovar Typhimurium LT2 DA6192 by Etest; type: functional
Salmonella typhimurium [10] = assay: Antimicrobial activity against Salmonella enterica serovar Typhimurium LT2 by Etest; type: functional, Salmonella enterica subsp. enterica serovar Typhimurium
Salmonella typhimurium [11] = assay: Antimicrobial activity against Salmonella enterica serovar Typhimurium LT2 DA10905 harboring sbmA L379P mutant gene by Etest; type: functional
Salmonella typhimurium [12] = assay: Antimicrobial activity against Salmonella enterica serovar Typhimurium LT2 DA10899 harboring Q179Stop mutant gene at 16 uM after 24 hrs; type: functional, organism-based; conditions: Salmonella enterica subsp. enterica serovar Typhimurium str. LT2
Salmonella typhimurium [13] = assay: Antimicrobial activity against Salmonella enterica serovar Typhimurium LT2 DA10899 harboring Q179Stop mutant gene at 8 uM after 24 hrs; type: functional, organism-based; conditions: Salmonella enterica subsp. enterica serovar Typhimurium str. LT2
Salmonella typhimurium [14] = assay: Antimicrobial activity against sbmA-deficient Salmonella enterica serovar Typhimurium LT2 DA12088 assessed as log increase in survival rate at 8 uM after 24 hrs relative to wild type; type: functional
Salmonella typhimurium [15] = assay: Antimicrobial activity against Salmonella enterica serovar Typhimurium LT2 at 8 uM after 24 hrs; type: functional, organism-based; conditions: Salmonella enterica subsp. enterica serovar Typhimurium
Salmonella typhimurium [16] = assay: Antimicrobial activity against Salmonella enterica serovar Typhimurium LT2 DA10896 harboring sbmA T375K mutant gene by Etest; type: functional
Salmonella typhimurium [17] = assay: Antimicrobial activity against sbmA-deficient Salmonella enterica serovar Typhimurium LT2 DA12088 by Etest; type: functional
Salmonella typhimurium [18] = assay: Antimicrobial activity against Salmonella enterica serovar Typhimurium LT2 DA10914 harboring sbmA S251L mutant gene by Etest; type: functional
Salmonella typhimurium [19] = assay: Antimicrobial activity against Salmonella enterica serovar Typhimurium LT2 DA10912 harboring sbmA Y326C mutant gene by Etest; type: functional
Salmonella typhimurium [20] = assay: Antimicrobial activity against sbmA-deficient Salmonella enterica serovar Typhimurium LT2 DA12088 at 16 uM after 24 hrs; type: functional, organism-based; conditions: Salmonella enterica subsp. enterica serovar Typhimurium str. LT2
Salmonella typhimurium [21] = assay: Antimicrobial activity against Salmonella enterica serovar Typhimurium LT2 DA10902 harboring deletion of bp 843-844 in sbmA gene by Etest; type: functional
Salmonella typhimurium [22] = assay: Antimicrobial activity against Salmonella enterica serovar Typhimurium LT2 DA10897 harboring sbmA W373Stop mutant gene by Etest; type: functional
Salmonella typhimurium [23] = assay: Antimicrobial activity against sbmA-deficient Salmonella enterica serovar Typhimurium LT2 DA12088 at 8 uM after 24 hrs; type: functional, organism-based; conditions: Salmonella enterica subsp. enterica serovar Typhimurium str. LT2
Salmonella typhimurium [24] = assay: Antimicrobial activity against Salmonella enterica serovar Typhimurium LT2 DA10899 harboring sbmA Q179Stop mutant gene by Etest; type: functional
Salmonella typhimurium [25] = assay: Antimicrobial activity against Salmonella enterica serovar Typhimurium LT2 DA13088 harboring sbmA gene by Etest in presence of arabinose; type: functional
Salmonella typhimurium [26] = assay: Antimicrobial activity against Salmonella enterica serovar Typhimurium LT2 DA10913 harboring sbmA C67Stop mutant gene by Etest; type: functional
Salmonella typhimurium [27] = assay: Antimicrobial activity against Salmonella enterica serovar Typhimurium LT2 DA10898 harboring deletion of bp 967 in sbmA gene by Etest; type: functional
Salmonella typhimurium [28] = assay: Antimicrobial activity against Salmonella enterica serovar Typhimurium LT2 DA14344 harboring sbmA Q179Stop gene by Etest in presence of arabinose; type: functional
[29] = Salmonella enterica subsp. enterica serovar Typhimurium str. LT2

## CC1(C)S[C@@H]2[C@H](NC(=O)[C@H](N)c3ccccc3)C(=O)N2[C@H]1C(=O)O [AMPICILLIN]
Salmonella typhimurium [1]
  MIC: 0.75 mg/L (≈ 2.15 µM)
Salmonella typhimurium [2]
  MIC: 0.75 mg/L (≈ 2.15 µM)
Salmonella typhimurium [3]
  MIC: 0.75 mg/L (≈ 2.15 µM)

## CC[C@H](C)[C@H](NC(=O)[C@H](CCCCN)NC(=O)[C@H](CCC(=O)O)NC(=O)[C@H](CCCCN)NC(=O)[C@H](CO)NC(=O)[C@H](CCCCN)NC(=O)[C@H](CCCNC(=N)N)NC(=O)[C@H](Cc1ccccc1)NC(=O)[C@H](Cc1ccccc1)NC(=O)[C@H](CC(=O)O)NC(=O)CNC(=O)[C@H](CC(C)C)NC(=O)[C@@H](N)CC(C)C)C(=O)NCC(=O)N[C@@H](CCCCN)C(=O)N[C@@H](CCC(=O)O)C(=O)N[C@@H](Cc1ccccc1)C(=O)N[C@@H](CCCCN)C(=O)N[C@@H](CCCNC(=N)N)C(=O)N[C@H](C(=O)N[C@H](C(=O)N[C@@H](CCC(N)=O)C(=O)N[C@@H](CCCNC(=N)N)C(=O)N[C@H](C(=O)N[C@@H](CCCCN)C(=O)N[C@@H](CC(=O)O)C(=O)N[C@@H](Cc1ccccc1)C(=O)N[C@@H](CC(C)C)C(=O)N[C@@H](CCCNC(=N)N)C(=O)N[C@@H](CC(N)=O)C(=O)N[C@@H](CC(C)C)C(=O)N[C@H](C(=O)N1CCC[C@H]1C(=O)N[C@@H](CCCNC(=N)N)C(=O)N[C@H](C(=O)N[C@@H](CCC(=O)O)C(=O)N[C@@H](CO)C(=O)O)[C@@H](C)O)C(C)C)[C@@H](C)CC)C(C)C)[C@@H](C)CC [CATHELICIDIN]
Salmonella typhimurium [1]
  MIC: 66 mg/L (≈ 14.7 µM)
Salmonella typhimurium [2]
  MIC: 66 mg/L (≈ 14.7 µM)
Salmonella typhimurium [3]
  MIC: 66 mg/L (≈ 14.7 µM)

## CO/N=C(\C(=O)N[C@@H]1C(=O)N2C(C(=O)[O-])=C(C[N+]3(C)CCCC3)CS[C@H]12)c1csc(N)n1 [CEFEPIME]
Salmonella typhimurium [1]
  MIC: 0.064 mg/L (≈ 0.133 µM)
Salmonella typhimurium [2]
  MIC: 0.064 mg/L (≈ 0.133 µM)
Salmonella typhimurium [3]
  MIC: 0.064 mg/L (≈ 0.133 µM)

## COCC1=C(C(=O)O)N2C(=O)[C@@H](NC(=O)/C(=N\OC)c3csc(N)n3)[C@H]2SC1 [CEFPODOXIME]
Salmonella typhimurium [1]
  MIC: 0.38 mg/L (≈ 0.889 µM)
Salmonella typhimurium [2]
  MIC: 0.38 mg/L (≈ 0.889 µM)
Salmonella typhimurium [3]
  MIC: 0.38 mg/L (≈ 0.889 µM)

## CO/N=C(\C(=O)N[C@@H]1C(=O)N2C(C(=O)O)=C(COC(N)=O)CS[C@H]12)c1ccco1 [CEFUROXIME]
Salmonella typhimurium [1]
  MIC: 4 mg/L (≈ 9.43 µM)
Salmonella typhimurium [2]
  MIC: 4 mg/L (≈ 9.43 µM)
Salmonella typhimurium [3]
  MIC: 4 mg/L (≈ 9.43 µM)

## CC(=O)OCC1=C(C(=O)O)N2C(=O)[C@@H](NC(=O)Cc3cccs3)[C@H]2SC1 [CEPHALOTHIN]
Salmonella typhimurium [1]
  MIC: 3 mg/L (≈ 7.57 µM)
Salmonella typhimurium [2]
  MIC: 3 mg/L (≈ 7.57 µM)
Salmonella typhimurium [3]
  MIC: 3 mg/L (≈ 7.57 µM)

## O=C(N[C@H](CO)[C@H](O)c1ccc([N+](=O)[O-])cc1)C(Cl)Cl [CHLORAMPHENICOL]
Salmonella typhimurium [1]
  MIC: 4 mg/L (≈ 12.4 µM)
Salmonella typhimurium [2]
  MIC: 4 mg/L (≈ 12.4 µM)
Salmonella typhimurium [3]
  MIC: 4 mg/L (≈ 12.4 µM)

## O=C(O)c1cn(C2CC2)c2cc(N3CCNCC3)c(F)cc2c1=O [CIPROFLOXACIN]
Salmonella typhimurium [1]
  MIC: 0.008 mg/L (≈ 0.0241 µM)
Salmonella typhimurium [2]
  MIC: 0.008 mg/L (≈ 0.0241 µM)
Salmonella typhimurium [3]
  MIC: 0.008 mg/L (≈ 0.0241 µM)

## NC[C@H]1O[C@H](O[C@H]2[C@H](O)[C@@H](O[C@H]3O[C@H](CO)[C@@H](O)[C@H](N)[C@H]3O)[C@H](N)C[C@@H]2N)[C@H](O)[C@@H](O)[C@@H]1O [KANAMYCIN]
Salmonella typhimurium [1]
  MIC: 1.5 mg/L (≈ 3.1 µM)
Salmonella typhimurium [2]
  MIC: 1.5 mg/L (≈ 3.1 µM)
Salmonella typhimurium [3]
  MIC: 1.5 mg/L (≈ 3.1 µM)

## CCn1cc(C(=O)O)c(=O)c2ccc(C)nc21 [NALIDIXIC ACID]
Salmonella typhimurium [1]
  MIC: 4 mg/L (≈ 17.2 µM)
Salmonella typhimurium [2]
  MIC: 4 mg/L (≈ 17.2 µM)
Salmonella typhimurium [3]
  MIC: 4 mg/L (≈ 17.2 µM)

## O=C1CN(/N=C/c2ccc([N+](=O)[O-])o2)C(=O)N1 [NITROFURANTOIN]
Salmonella typhimurium [1]
  MIC: 8 mg/L (≈ 33.6 µM)
Salmonella typhimurium [2]
  MIC: 8 mg/L (≈ 33.6 µM)
Salmonella typhimurium [3]
  MIC: 8 mg/L (≈ 33.6 µM)

## CN[C@@H]1[C@H](O[C@H]2[C@H](O[C@H]3[C@H](O)[C@@H](O)[C@H](N=C(N)N)[C@@H](O)[C@@H]3N=C(N)N)O[C@@H](C)[C@]2(O)C=O)O[C@@H](CO)[C@H](O)[C@H]1O [STREPTOMYCIN]
Salmonella typhimurium [1]
  MIC: 3 mg/L (≈ 5.16 µM)
Salmonella typhimurium [2]
  MIC: 3 mg/L (≈ 5.16 µM)
Salmonella typhimurium [3]
  MIC: 3 mg/L (≈ 5.16 µM)

## CN(C)[C@@H]1C(O)=C(C(N)=O)C(=O)[C@@]2(O)C(O)=C3C(=O)c4c(O)cccc4[C@@](C)(O)[C@H]3C[C@@H]12 [TETRACYCLINE]
Salmonella typhimurium [1]
  MIC: 3 mg/L (≈ 6.75 µM)
Salmonella typhimurium [2]
  MIC: 3 mg/L (≈ 6.75 µM)
Salmonella typhimurium [3]
  MIC: 3 mg/L (≈ 6.75 µM)

## BLEOMYCIN
Salmonella typhimurium [1]; [29]
  MIC: 1.8 mg/L
Salmonella typhimurium [2]; [29]
  MIC: 1.8 mg/L
Salmonella typhimurium [3]; [29]
  MIC: 0.4 mg/L

## COLISTIN
Salmonella typhimurium [1]; [29]
  MIC: 0.5 mg/L
Salmonella typhimurium [2]; [29]
  MIC: 0.5 mg/L
Salmonella typhimurium [3]; [29]
  MIC: 0.5 mg/L

## H-GLLRKGGEKIGEKLKKIGQKIKNFFQKLVPQPEQ-OH
Salmonella typhimurium [1]
  MIC: 32 mg/L
Salmonella typhimurium [2]
  MIC: 32 mg/L
Salmonella typhimurium [3]
  MIC: 32 mg/L

## H-GLVRKGGEKFGEKLRKIGQKIKEFFQKLALEIEQ-OH
Salmonella typhimurium [1]
  MIC: 23 mg/L
Salmonella typhimurium [2]
  MIC: 30 mg/L
Salmonella typhimurium [3]
  MIC: 23 mg/L

## H-RRRPRPPYLPRPRPPPFFPPRLPPRIPPGFPPRFPPRFP-NH2
Salmonella typhimurium [4]
  FC: 4
Salmonella typhimurium [5]
  Activity: inactive
Salmonella typhimurium [6]
  FC: 4
Salmonella typhimurium [7]
  MIC: 3 µM
Salmonella typhimurium [1]
  MIC: 28 mg/L
Salmonella typhimurium [8]
  MIC: 7 µM
Salmonella typhimurium [9]
  MIC: 2 µM
Salmonella typhimurium [10]
  MIC: 3 µM
Salmonella typhimurium [11]
  MIC: 7 µM
Salmonella typhimurium [12]
  Activity: inactive
Salmonella typhimurium [13]
  Activity: inactive
Salmonella typhimurium [14]
  FC: 4
Salmonella typhimurium [15]
  Activity: inactive
Salmonella typhimurium [16]
  MIC: 6 µM
Salmonella typhimurium [17]
  MIC: 6 µM
Salmonella typhimurium [18]
  MIC: 7 µM
Salmonella typhimurium [19]
  MIC: 5 µM
Salmonella typhimurium [20]
  Activity: inactive
Salmonella typhimurium [2]
  MIC: 28 mg/L
Salmonella typhimurium [21]
  MIC: 7 µM
Salmonella typhimurium [3]
  MIC: 8.5 mg/L
Salmonella typhimurium [22]
  MIC: 7 µM
Salmonella typhimurium [23]
  Activity: inactive
Salmonella typhimurium [24]
  MIC: 6 µM
Salmonella typhimurium [25]
  MIC: 1.5 µM
Salmonella typhimurium [26]
  MIC: 7 µM
Salmonella typhimurium [27]
  MIC: 7 µM
Salmonella typhimurium [28]
  MIC: 3 µM
